From patent US12157730B2, “Heteroaryl derivative, method for producing same, and pharmaceutical composition comprising same as effective component” (VORONOI INC., priority 2019, dated 2024)

Molecular target: T1, Ba/F3 cell EGFR Exon20 ins NPH (Homo sapiens, UniProt P00533, INS773NPH)
T1 construct: expressed in transfected cells; host or cells: Ba/F3
Assay: Ba/F3 cell proliferation suppression, EGFR Exon20 ins NPH
Format: cell-based
Settings: GI50 class; Ba/F3 cell line with NPH inserted at Exon20 of EGFR; 72 hours
Procedure, shortened: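 Seed 3000–5000 cells/well; after 24 h add compound (12 conc., 0.3 nM–50 um final); incubate 72 h; add CellTiter-Glo, 10 min room temperature; read luminescence; GI50 from % growth vs control, triplicate.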

| Ba/F3 (NPH) Activity | SMILES |
| --- | --- |
| A (GI50 < 50 nM) | C=CC(=O)Nc1cc(Nc2cc(N3OCC[C@@H]3c3cccc(C)c3F)ncn2)c(OC)cc1N1CCC(N2CCC(N(C)C)CC2)CC1 [compound 420, N-(2-(4-(dimethylamino)-[1,4'-bipiperidine]-1'-yl)-5-((6-((R)-3-(2-fluoro-3-methylphenyl)isoxazolidine-2-yl)pyrimidine-4-yl)amino)-4-methoxyphenyl) acrylamide] |
| A (GI50 < 50 nM) | C=CC(=O)Nc1cc(Nc2cc(N3OCC[C@@H]3c3cc(F)cc(Cl)c3)ncn2)c(OC)cc1N1CCC(N2CCO[C@H](C)C2)CC1 [compound 596, N-(5-((6-((R)-3-(3-chloro-5-fluorophenyl)isoxazolidine-2-yl)pyrimidine-4-yl)amino)-4-methoxy-2-(4-((R)-2-methylmorpholino)piperidine-1-yl)phenyl)acrylamide] |
| A (GI50 < 50 nM) | C=CC(=O)Nc1cc(Nc2cc(N3OCC[C@@H]3c3ccc(F)c(Cl)c3F)ncn2)c(OC)cc1N1CCC(N2C[C@H]3C[C@@H]2CO3)CC1 [compound 635, N-(2-(4-((1R,4R)-2-oxa-5-azabicyclo[2.2.1]heptane-5-yl)piperidine-1-yl)-5-((6-((R)-3-(3-chloro-2,4-difluorophenyl)isoxazolidine-2-yl)pyrimidine-4-yl)amino)-4-methoxyphenyl) acrylamide] |
| A (GI50 < 50 nM) | C=CC(=O)Nc1cc(Nc2cc(N3OCC[C@@H]3c3ccc(F)c(Cl)c3)ncn2)c(OC)cc1N1CCC(N2CCO[C@@H](C)C2)CC1 [compound 873, N-(5-((6-((R)-3-(3-chloro-4-fluorophenyl)isoxazolidine-2-yl)pyrimidine-4-yl)amino)-4-methoxy-2-(4-((S)-2-methylmorpholino)piperidine-1-yl)phenyl) acrylamide] |
| A (GI50 < 50 nM) | C=CC(=O)Nc1cc(Nc2cc(N3OCC[C@@H]3c3cc(F)ccc3F)ncn2)c(OC)cc1N1CCC(N2CC[C@@H](N(C)C)C2)CC1 [compound 304, N-(5-((6-((R)-3-(2,5-difluorophenyl)isoxazolidine-2-yl)pyrimidine-4-yl)amino)-2-(4-((R)-3-(dimethylamino)pyrolidine-1-yl)piperidine-1-yl)-4-methoxyphenyl) acrylamide] |
| A (GI50 < 50 nM) | C=CC(=O)Nc1cc(Nc2cc(N3OCC[C@@H]3c3ccc(F)cc3F)ncn2)c(OC)cc1N1CCC(N2CCN(C3CC3)CC2)CC1 [Example 139, N-(2-(4-(4-cyclopropylpiperazine-1-yl)piperidine-1-yl)-5-((6-((R)-3-(2,4-difluorophenyl)isoxazolidine-2-yl)pyrimidine-4-yl)amino)-4-methoxyphenyl) acrylamide] |
| A (GI50 < 50 nM) | C=CC(=O)Nc1cc(Nc2cc(N3OCC[C@@H]3c3cccc(Cl)c3C)ncn2)c(OC)cc1N1CCC(N2CCN(C3CC3)[C@@H](C)C2)CC1 [Example 153, N-(5-((6-((R)-3-(3-chloro-2-methylphenyl)isoxazolidine-2-yl)pyrimidine-4-yl)amino)-2-(4-((S)-4-cyclopropyl-3-methylpiperazine-1-yl)piperidine-1-yl)-4-methoxyphenyl) acrylamide] |
| A (GI50 < 50 nM) | C=CC(=O)Nc1cc(Nc2cc(N3OCC[C@@H]3c3ccc(F)c(F)c3)ncn2)c(OC)cc1N1CCC(N2C[C@H]3C[C@@H]2CO3)CC1 [compound 498, N-(2-(4-((1R,4R)-2-oxa-5-azabicyclo[2.2.1]heptane-5-yl)piperidine-1-yl)-5-((6-((R)-3-(3,4-difluorophenyl)isoxazolidine-2-yl)pyrimidine-4-yl)amino)-4-methoxyphenyl) acrylamide] |

More lines, now with the values behind:

| SMILES | Ba/F3 (NPH) Activity |
| --- | --- |
| C=CC(=O)Nc1cc(Nc2cc(N3OCC[C@@H]3c3ccc(Cl)c(Cl)c3)ncn2)c(OC)cc1N1CCN(CC2CC2)CC1 [compound 687, N-(2-(4-(cyclopropylmethyl)piperazine-1-yl)-5-((6-((R)-3-(3,4-dichlorophenyl)isoxazolidine-2-yl)pyrimidine-4-yl)amino)-4-methoxyphenyl) acrylamide] | A (GI50 < 50 nM) |
| C=CC(=O)Nc1cc(Nc2cc(N3OCC[C@@H]3c3cccc(F)c3Cl)ncn2)c(OC)cc1N(C)CCN(C)C [compound 551, N-(5-((6-((R)-3-(2-chloro-3-fluorophenyl)isoxazolidine-2-yl)pyrimidine-4-yl)amino)-2-((2-(dimethylamino)ethyl)(methyl)amino)-4-methoxyphenyl) acrylamide] | A (GI50 < 50 nM) |
| C=CC(=O)Nc1cc(Nc2cc(N3OCC[C@@H]3c3ccccc3)ncn2)c(OC)cc1N1CCC(N2CCN(C(C)C)CC2)CC1 [Example 283, N-(2-(4-(4-isopropylpiperazine-1-yl)piperidine-1-yl)-4-methoxy-5-((6-((R)-3-phenylisoxazolidine-2-yl)pyrimidine-4-yl)amino)phenyl) acrylamide] | A (GI50 < 50 nM) |
| C=CC(=O)Nc1cc(Nc2cc(N3OCC[C@@H]3c3cccc(Cl)c3)ncn2)c(OC)cc1N1CCC(N2CCN(C3CC3)CC2)CC1 [Example 138, N-(5-((6-((R)-3-(3-chlorophenyl)isoxazolidine-2-yl)pyrimidine-4-yl)amino)-2-(4-(4-cyclopropylpiperazine-1-yl)piperidine-1-yl)-4-methoxyphenyl) acrylamide] | A (GI50 < 50 nM) |
| C=CC(=O)Nc1cc(Nc2cc(N3OCC[C@@H]3c3ccc(F)c(Cl)c3)ncn2)c(OC)cc1N(C)CCN(C)C [compound 701, N-(5-((6-((R)-3-(3-chloro-4-fluorophenyl)isoxazolidine-2-yl)pyrimidine-4-yl)amino)-2-((2-(dimethylamino)ethyl)(methyl)amino)-4-methoxyphenyl) acrylamide] | A (GI50 < 50 nM) |
| C=CC(=O)Nc1cc(Nc2cc(N3OCC[C@@H]3c3cccc(C)c3F)ncn2)c(OC)cc1N1CCC(N2C[C@@H]3C[C@H]2CO3)CC1 [compound 362, N-(2-(4-((1S,4S)-2-oxa-5-azabicyclo[2.2.1]heptane-5-yl)piperidine-1-yl)-5-((6-((R)-3-(2-fluoro-3-methylphenyl)isoxazolidine-2-yl)pyrimidine-4-yl)amino)-4-methoxyphenyl) acrylamide] | A (GI50 < 50 nM) |
| C=CC(=O)Nc1cc(Nc2cc(N3OCC[C@H]3c3c(F)cccc3F)ncn2)c(OC)cc1N1CCC(N2CCN(C3CC3)CC2)CC1 [Example 129, N-(2-(4-(4-cyclopropylpiperazine-1-yl)piperidine-1-yl)-5-((6-((S)-3-(2,6-difluorophenyl)isoxazolidine-2-yl)pyrimidine-4-yl)amino)-4-methoxyphenyl) acrylamide] | C (500 nM ≤ GI50 < 5000 nM) |
| C=CC(=O)Nc1cc(Nc2cc(N3OCC[C@@H]3c3ccc(F)c(Cl)c3F)ncn2)c(OC)cc1N1CCN(C)CC1 [compound 604, N-(5-((6-((R)-3-(3-chloro-2,4-difluorophenyl)isoxazolidine-2-yl)pyrimidine-4-yl)amino)-4-methoxy-2-(4-methylpiperazine-1-yl)phenyl)acrylamide] | A (GI50 < 50 nM) |
| C=CC(=O)Nc1cc(Nc2cc(N3OCC[C@@H]3c3ccc(Cl)cc3)ncn2)c(OC)cc1N1CCC(N2CCN(C(C)=O)CC2)CC1 [compound 806, N-(2-(4-(4-acetylpiperazine-1-yl)piperidine-1-yl)-5-((6-((R)-3-(4-chlorophenyl)isoxazolidine-2-yl)pyrimidine-4-yl)amino)-4-methoxyphenyl) acrylamide] | A (GI50 < 50 nM) |
| C=CC(=O)Nc1cc(Nc2cc(N3OCC[C@@H]3c3ccc(Cl)cc3F)ncn2)c(OC)cc1N1CCN(C)CC1 [compound 372, N-(5-((6-((R)-3-(4-chloro-2-fluorophenyl)isoxazolidine-2-yl)pyrimidine-4-yl)amino)-4-methoxy-2-(4-methylpiperazine-1-yl)phenyl)acrylamide] | A (GI50 < 50 nM) |
| C=CC(=O)Nc1cc(Nc2cc(N3OCC[C@@H]3c3cccc(C#N)c3)ncn2)c(OC)cc1N1CCC(N2CCN(C3CC3)C[C@@H]2C)CC1 [Example 132, N-(5-((6-((R)-3-(3-cyanophenyl)isoxazolidine-2-yl)pyrimidine-4-yl)amino)-2-(4-((S)-4-cyclopropyl-2-methylpiperazine-1-yl)piperidine-1-yl)-4-methoxyphenyl) acrylamide] | B (50 nM ≤ GI50 < 500 nM) |
| C=CC(=O)Nc1cc(Nc2cc(N3OCC[C@@H]3c3ccc(Cl)c(Cl)c3)ncn2)c(OC)cc1N1CCC(N2CCN(C)CC2)CC1 [compound 681] | A (GI50 < 50 nM) |
| C=CC(=O)Nc1cc(Nc2cc(N3OCC[C@@H]3c3cccc(Cl)c3Cl)ncn2)c(OC)cc1N1CCN(C)CC1 [compound 481, N-(5-((6-((R)-3-(2,3-dichlorophenyl)isoxazolidine-2-yl)pyrimidine-4-yl)amino)-4-methoxy-2-(4-methylpiperazine-1-yl)phenyl)acrylamide] | A (GI50 < 50 nM) |
| C=CC(=O)Nc1cc(Nc2cc(N3OCC[C@@H]3c3ccc(Cl)c(Cl)c3F)ncn2)c(OC)cc1N1CCC(N2CCN(C(C)C)CC2)CC1 [compound 804, N-(5-((6-((R)-3-(3,4-dichloro-2-fluorophenyl)isoxazolidine-2-yl)pyrimidine-4-yl)amino)-2-(4-(4-isopropylpiperazine-1-yl)piperidine-1-yl)-4-methoxyphenyl) acrylamide] | A (GI50 < 50 nM) |
| C=CC(=O)Nc1cc(Nc2cc(N3OCC[C@@H]3c3cccc(Cl)c3)ncn2)c(OC)cc1N1CCN(C(C)=O)CC1 [compound 464, N-(2-(4-acetylpiperazine-1-yl)-5-((6-((R)-3-(3-chlorophenyl)isoxazolidine-2-yl)pyrimidine-4-yl)amino)-4-methoxyphenyl) acrylamide] | A (GI50 < 50 nM) |
